Measurements taken from patent US7238812B2, “Tricyclic triazolobenzazepine derivatives, process for producing the same, and antiallergic agents” (Meji Seika Kaisha, Ltd., priority 1997, dated 2007).

Key:
Type in all cases: in vivo
[1] = Oral absorption in dogs: plasma level by HPLC, AUC; details: equimolar amount, in 0.5% aqueous methylcellulose solution, area under plasma level vs time curve
Experimental: (§1) The compound of Synthesis Example 1, the compound of Example 7, and the compound of Example 20 were suspended or dissolved in a 0.5% aqueous methylcellulose solution. The resultant solutions were orally administered in an equimolar amount to dogs and rats. After the administration, the amount of each compound contained in plasma of each animal individual was quantitatively determined by HPLC. The absorption in each specimen was assayed by the area under a medicament level of plasma vs time curve (AUC). As a result, AUCs obtained by the compounds of Examples 7 and 20 as prodrugs were 3 to 4 times higher for the dog and 3 to 7 times higher for the rat compared with the compound of Synthesis Example 1 as an activator body.

[2] = Oral absorption in rats: plasma level by HPLC, AUC; details: equimolar amount, in 0.5% aqueous methylcellulose solution, area under plasma level vs time curve
Experimental: as §1

ICR male mice = ICR male mice (5 weeks old), dose of 2 g/kg, suspension in 0.5% aqueous methylcellulose solution
Text: Acute Toxicity Test by Single Administration
The compound of Example 20 was homogeneously suspended in a 0.5% aqueous methylcellulose solution. The suspension was forcibly orally administered to ICR male mice (5 weeks old).

Compound	AUC Dog [1]	AUC Rat [2]	Survival and abnormality after single forced oral administration (ICR male mice)
COc1cc2[nH]c(=O)c3nn(COC(=O)OC(C)C)nc3c(=O)c2cc1OC [Example 7, 2-(Isopropoxycarbonyloxymethyl)-7,8-dimethoxy-4(5H),10-dioxo-2H-1,2,3-triazolo[4,5-c][1]benzazepine]	0.9 ± 0.1 µmol·h/L	0.6 ± 0.1 µmol·h/L	
COc1cc2[nH]c(=O)c3nn(C(OC(=O)OC(C)C)C(C)C)nc3c(=O)c2cc1OC (stereo not shown) [Example 20, 2-(1-Isopropoxycarbonyloxy-2-methylpropyl)-7,8-dimethoxy-4(5H),10-dioxo-2H-1,2,3-triazolo[4,5-c][1]benzazepine]	1.2 ± 0.3 µmol·h/L	1.4 ± 0.1 µmol·h/L	all the mice survived and developed no abnormality
COc1cc2[nH]c(=O)c3nn[nH]c3c(=O)c2cc1OC [Synthesis Example 1, 7,8-Dimethoxy-4(5H),10-dioxo-1H-1,2,3-triazolo[4,5-c][1]benzazepine, reference compound]	0.3 ± 0.1 µmol·h/L	0.2 ± 0.1 µmol·h/L	
